Experimental data published in patent publication US20250197409A1, “BIFUNCTIONAL COMPOUND AND PHARMACEUTICAL COMPOSITION COMPRISING THE BIFUNCTIONAL COMPOUND, AND METHOD FOR TREATING ANDROGEN RECEPTOR RELATED DISEASE BY USING THE SAME” (ANHORN MEDICINES CO., LTD., priority 2022, published 2025).
Like-named read-outs stand apart in the source and are kept apart here.

Target: T1, androgen receptor (Homo sapiens, UniProt P10275, T878A)
T1 construct: host or cells: LNCaP.FGC
Assay: Androgen receptor degradation assay using Western blot analysis
Type: cell-based
Method: Cells not treated with any of the above-mentioned compounds are used as a negative control.
The internal loading control GAPDH was detected using a mouse monoclonal antibody (1:5000) (GTX627408, GeneTex International Corp., HsinChu City, Taiwan R.O.C.) and a goat anti-mouse HRP-conjugated secondary antibody (1:5000 dilution) (C04001, Croyez Bioscience Co., Ltd., Taipei City, Taiwan R.O.C.).
AR remaining percentage was determined by the intensity difference of AR signals (each was normalized by the corresponding internal loading control GAPDH) between the protein samples from the untreated cells (100%) and those from the treated cells. “Cpd. #” indicates the compound number hereinabove.
In addition, several compounds were selected to prepare a treatment stock solutions at 100 nM in RPMI medium. The treatment stock solutions were separately serially diluted (10×) with RPMI medium for treating LNCaP.FGC cells seeded with 2×10^5 cells per well in 24-well tissue culture plates. A calibration curve was determined by the serial diluted samples for each compound, and the concentration needed for 50% AR degradation (AR DC50) for each compound was calculated.

[1] = 24 h, read-out: Androgen Receptor Remaining (%), LNCaP.FGC cells, 100 nM, 24 hr, normalized to GAPDH, untreated cells = 100%
[2] = 24 h, LNCaP.FGC cells, 100 nM, 24 hr, normalized to GAPDH, untreated cells = 100%; read-out: Androgen Receptor Remaining (%)
[3] = LNCaP.FGC cells, serial 10x dilutions from 100 nM; read-out: AR DC50 (concentration needed for 50% AR degradation)
[4] = read-out: AR DC50 (concentration needed for 50% AR degradation); LNCaP.FGC cells, serial 10x dilutions from 100 nM

T1 sequence (P10275 whole entry T878A): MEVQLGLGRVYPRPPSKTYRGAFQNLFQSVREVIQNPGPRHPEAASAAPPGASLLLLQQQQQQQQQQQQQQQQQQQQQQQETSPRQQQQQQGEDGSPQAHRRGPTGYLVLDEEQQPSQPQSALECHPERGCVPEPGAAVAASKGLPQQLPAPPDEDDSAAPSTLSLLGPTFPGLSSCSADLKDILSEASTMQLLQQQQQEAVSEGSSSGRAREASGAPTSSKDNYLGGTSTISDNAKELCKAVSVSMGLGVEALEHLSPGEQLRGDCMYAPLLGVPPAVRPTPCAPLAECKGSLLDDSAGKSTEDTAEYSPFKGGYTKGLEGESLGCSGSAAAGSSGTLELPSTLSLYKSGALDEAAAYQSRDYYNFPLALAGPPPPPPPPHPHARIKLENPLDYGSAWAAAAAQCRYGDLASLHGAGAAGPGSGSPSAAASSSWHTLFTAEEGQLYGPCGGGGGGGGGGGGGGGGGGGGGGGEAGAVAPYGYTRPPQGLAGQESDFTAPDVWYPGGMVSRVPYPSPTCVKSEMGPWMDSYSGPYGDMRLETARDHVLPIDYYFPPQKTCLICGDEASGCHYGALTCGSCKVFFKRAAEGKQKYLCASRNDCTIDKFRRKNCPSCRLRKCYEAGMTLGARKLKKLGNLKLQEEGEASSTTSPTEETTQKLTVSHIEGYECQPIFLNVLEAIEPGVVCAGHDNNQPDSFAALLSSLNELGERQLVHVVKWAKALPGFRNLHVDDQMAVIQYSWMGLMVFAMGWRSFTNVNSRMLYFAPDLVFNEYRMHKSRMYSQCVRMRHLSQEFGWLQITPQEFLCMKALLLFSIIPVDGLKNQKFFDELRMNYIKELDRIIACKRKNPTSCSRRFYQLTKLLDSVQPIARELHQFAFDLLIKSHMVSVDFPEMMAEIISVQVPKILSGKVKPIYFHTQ
T1 sequence (Q96SW2 whole entry partner): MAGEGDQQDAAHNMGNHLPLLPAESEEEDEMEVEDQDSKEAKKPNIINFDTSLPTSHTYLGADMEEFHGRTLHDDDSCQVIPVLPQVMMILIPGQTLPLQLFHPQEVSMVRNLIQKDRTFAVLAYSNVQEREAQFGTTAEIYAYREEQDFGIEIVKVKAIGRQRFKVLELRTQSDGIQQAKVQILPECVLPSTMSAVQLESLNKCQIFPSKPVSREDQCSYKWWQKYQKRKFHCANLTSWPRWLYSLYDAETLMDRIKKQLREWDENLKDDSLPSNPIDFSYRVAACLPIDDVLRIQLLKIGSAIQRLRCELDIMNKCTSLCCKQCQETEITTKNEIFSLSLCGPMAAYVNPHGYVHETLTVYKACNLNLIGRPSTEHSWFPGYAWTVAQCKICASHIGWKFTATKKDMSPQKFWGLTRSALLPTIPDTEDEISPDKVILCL

Structure (SMILES) | remaining activity at 0.1 µM [1] | DC50 [4] | other results
CC(C)n1c2c(c3cc(OCCN4CCN(c5ccc(C(=O)N[C@H]6C(C)(C)[C@H](Oc7ccc(C#N)c(Cl)c7)C6(C)C)cc5)CC4)ccc31)C(=O)N(C1CCC(=O)NC1=O)C2=O (stereo partly drawn) [Compound 17] | 127% |  | 
Cn1c2c(c3cccc(OCCCN4CCN(c5ccc(C(=O)N[C@H]6CC[C@H](Oc7ccc(C#N)c(Cl)c7)CC6)nn5)CC4)c31)C(=O)N(C1CCC(=O)NC1=O)C2=O (stereo partly drawn) [Compound 43] |  |  | remaining activity at 0.1 µM [2]: 26%; DC50 [3]: 25 to 100 nM
CCn1c2c(c3ccc(NC(=O)CN4CCN(c5ccc(C(=O)N[C@H]6C(C)(C)[C@H](Oc7ccc(C#N)c(Cl)c7)C6(C)C)cn5)CC4)cc31)C(=O)N(C1CCC(=O)NC1=O)C2=O (stereo partly drawn) [Compound 56] | 4% | 25 to 100 nM | 
CCn1c2c(c3cc(OCCN4CCN(c5ccc(C(=O)N[C@H]6C(C)(C)[C@H](Oc7ccc(C#N)c(Cl)c7)C6(C)C)cn5)CC4)ccc31)C(=O)N(C1CCC(=O)NC1=O)C2=O (stereo partly drawn) [Compound 5] | 51% |  | 
CCn1c2c(c3ccc(OCCN4CCC5(CC4)CN(c4ccc(C(=O)N[C@H]6C(C)(C)[C@H](Oc7ccc(C#N)c(Cl)c7)C6(C)C)nn4)C5)cc31)C(=O)N(C1CCC(=O)NC1=O)C2=O (stereo partly drawn) [Compound 51] | 20% | 25 to 100 nM | 
CCn1c2c(c3ccc(OCCN4CCC5(CC4)CCN(c4ccc(C(=O)N[C@H]6CC[C@H](N(C)c7ccc(C#N)c(Cl)c7)CC6)nn4)CC5)cc31)C(=O)N(C1CCC(=O)NC1=O)C2=O (stereo partly drawn) [Compound 180] |  | < 10 nM | 
CCn1c2c(c3ccc(OCCCN4CCC5(C4)CN(c4ccc(C(=O)N[C@H]6CC[C@H](Oc7ccc(C#N)c(Cl)c7)CC6)nn4)C5)cc31)C(=O)N(C1CCC(=O)NC1=O)C2=O (stereo partly drawn) [Compound 160] | 17% | < 10 nM | 
CCn1c2c(c3ccc(OCC(C)COC4CCN(c5ccc(C(=O)N[C@H]6CC[C@H](Oc7ccc(C#N)c(Cl)c7)CC6)nn5)CC4)cc31)C(=O)N(C1CCC(=O)NC1=O)C2=O (stereo partly drawn) [Compound 36] |  | 10 to 25 nM | 
CCn1c2c(c3ccc(OCC(=O)N4CCCN(c5ccc(C(=O)N[C@H]6CC[C@H](N(C)c7ccc(C#N)c(Cl)c7)CC6)nn5)CC4)cc31)C(=O)N(C1CCC(=O)N(CO)C1=O)C2=O (stereo partly drawn) [Compound 130] | 51% |  | 
CCn1c2c(c3ccc(OCC(=O)N4CCC5(CCN(c6ccc(C(=O)N[C@H]7CC[C@H](Oc8ccc(C#N)c(Cl)c8)CC7)nn6)C5)C4)cc31)C(=O)N(C1CCC(=O)NC1=O)C2=O (stereo partly drawn) [Compound 136] | 17% | 25 to 100 nM | 
C[Si](C)(C)CCOCn1c2c(c3ccc(OCCCN4CCN(c5ccc(C(=O)N[C@H]6CC[C@H](Oc7ccc(C#N)c(Cl)c7)CC6)nn5)CC4)cc31)C(=O)N(C1CCC(=O)NC1=O)C2=O (stereo partly drawn) [Compound 84] | 62% |  | 
Cn1c2c(c3ccc(OCCCN4CCN(c5ccc(C(=O)N[C@H]6CC[C@H](Oc7ccc(C#N)c(Cl)c7)CC6)nn5)CC4)cc31)C(=O)N(C1CCC(=O)NC1=O)C2=O (stereo partly drawn) [Compound 207] |  |  | DC50 [3]: < 10 nM
CCn1c2c(c3ccc(OCC(=O)NCC4CCN(c5ccc(C(=O)N[C@H]6CC[C@H](N(C)c7ccc(C#N)c(Cl)c7)CC6)nn5)CC4)cc31)C(=O)N(C1CCC(=O)NC1=O)C2=O (stereo partly drawn) [Compound 142] | 49% | 25 to 100 nM | 
CCn1c2c(c3ccc(OCCCN4CCN(c5ncc(C(=O)N[C@H]6CC[C@H](Oc7ccc(C#N)c(Cl)c7)CC6)cn5)CC4)cc31)C(=O)N(C1CCC(=O)NC1=O)C2=O (stereo partly drawn) [Compound 220] |  | 25 to 100 nM | 
Cn1c2c(c3ccc(OCCN4CCC5(CC4)CCN(c4ccc(C(=O)N[C@H]6CC[C@H](Oc7ccc(C#N)c(Cl)c7)CC6)nn4)CC5)cc31)C(=O)N(C1CCC(=O)NC1=O)C2=O (stereo partly drawn) [Compound 195] |  |  | DC50 [3]: 10 to 25 nM
CCn1c2c(c3ccc(OCC(=O)N4CCC5(CC4)CN(c4ccc(C(=O)N[C@H]6CC[C@H](Oc7ccc(C#N)c(Cl)c7)CC6)nn4)C5)cc31)C(=O)N(C1CCC(=O)NC1=O)C2=O (stereo partly drawn) [Compound 123] | 33% | > 100 nM | 
CCn1c2c(c3ccc(OCCN4CCC5(C4)CN(c4ccc(C(=O)N[C@H]6CC[C@H](Oc7ccc(C#N)c(Cl)c7)CC6)nn4)C5)cc31)C(=O)N(C1CCC(=O)NC1=O)C2=O (stereo partly drawn) [Compound 161] | 31% | 10 to 25 nM | 
Cn1c2c(c3cc(OCCN4CCN(c5ccc(C(=O)N[C@H]6C(C)(C)[C@H](Oc7ccc(C#N)c(Cl)c7)C6(C)C)cc5)CC4)ccc31)C(=O)N(C1CCC(=O)NC1=O)C2=O (stereo partly drawn) [Compound 15] |  |  | remaining activity at 0.1 µM [2]: 106%
Cn1c2c(c3ccc(OCCCCOC4CCN(c5ccc(C(=O)N[C@H]6CC[C@H](Oc7ccc(C#N)c(Cl)c7)CC6)nn5)CC4)cc31)C(=O)N(C1CCC(=O)NC1=O)C2=O (stereo partly drawn) [Compound 187] |  |  | DC50 [3]: 25 to 100 nM

Structure (SMILES) | remaining activity at 0.1 µM [1] | DC50 [4] | other results
CCn1c2c(c3ccc(OCCCN4CCC5(CC4)CCN(c4ccc(C(=O)N[C@H]6CC[C@H](N(C)c7ccc(C#N)c(Cl)c7)CC6)nn4)CC5)cc31)C(=O)N(C1CCC(=O)NC1=O)C2=O (stereo partly drawn) [Compound 181] |  | < 10 nM | 
CCn1c2c(c3ccc(OCCN4CC5CCC(C4)N5c4ccc(C(=O)N[C@H]5CC[C@H](Oc6ccc(C#N)c(Cl)c6)CC5)nn4)cc31)C(=O)N(C1CCC(=O)NC1=O)C2=O (stereo partly drawn) [Compound 70] | 62% |  | 
Cn1c2c(c3ccc(OCCOC4CC5(CCN(c6ccc(C(=O)N[C@H]7CC[C@H](Oc8ccc(C#N)c(Cl)c8)CC7)nn6)C5)C4)cc31)C(=O)N(C1CCC(=O)NC1=O)C2=O (stereo partly drawn) [Compound 174] |  |  | DC50 [3]: 25 to 100 nM
CCn1c2c(c3ccc(OCC(=O)N4CCC5(CCN(c6ccc(C(=O)N[C@H]7CC[C@H](Oc8ccc(C#N)c(Cl)c8)CC7)nn6)C5)C4)cc31)C(=O)N(C1CCC(=O)N(CO)C1=O)C2=O (stereo partly drawn) [Compound 135] | 17% | 25 to 100 nM | 
CCn1c2c(c3ccc(OCCCN4CCC(C5CCN(c6ccc(C(=O)N[C@H]7CC[C@H](Oc8ccc(C#N)c(Cl)c8)CC7)nn6)CC5)CC4)cc31)C(=O)N(C1CCC(=O)NC1=O)C2=O (stereo partly drawn) [Compound 157] | 18% | 10 to 25 nM | 
Cn1c2c(c3ccc(OC4CCN(CC5CCN(c6ccc(C(=O)N[C@H]7C(C)(C)[C@H](Oc8ccc(C#N)c(Cl)c8)C7(C)C)nn6)CC5)CC4)cc31)C(=O)N(C1CCC(=O)NC1=O)C2=O (stereo partly drawn) [Compound 221] |  |  | DC50 [3]: 10 to 25 nM
CCn1c2c(c3ccc(OCCOCC4CCN(c5ccc(C(=O)N[C@H]6CC[C@H](N(C)c7ccc(C#N)c(Cl)c7)CC6)nn5)CC4)cc31)C(=O)N(C1CCC(=O)NC1=O)C2=O (stereo partly drawn) [Compound 137] | 1% | 25 to 100 nM | 
Cn1c2c(c3ccc(OCCN4CCC(c5ccc(C(=O)N[C@H]6CC[C@H](Oc7ccc(C#N)c(Cl)c7)CC6)nn5)CC4)cc31)C(=O)N(C1CCC(=O)NC1=O)C2=O (stereo partly drawn) [Compound 208] |  |  | DC50 [3]: 10 to 25 nM
CC(COc1ccc2c3c(n(C)c2c1)C(=O)N(C1CCC(=O)NC1=O)C3=O)CN1CCN(c2ccc(C(=O)N[C@H]3CC[C@H](N(C)c4ccc(C#N)c(Cl)c4)CC3)nn2)CC1 (stereo partly drawn) [Compound 189] |  | 10 to 25 nM | 
CCn1c2c(c3ccc(OCCCOC4CC5(CCN(c6ccc(C(=O)N[C@H]7CC[C@H](N(C)c8ccc(C#N)c(Cl)c8)CC7)nn6)C5)C4)cc31)C(=O)N(C1CCC(=O)NC1=O)C2=O (stereo partly drawn) [Compound 177] |  | 25 to 100 nM | 
Cn1c2c(c3ccc(OCCCOC4CC5(CCN(c6ccc(C(=O)N[C@H]7CC[C@H](N(C)c8ccc(C#N)c(Cl)c8)CC7)nn6)C5)C4)cc31)C(=O)N(C1CCC(=O)NC1=O)C2=O (stereo partly drawn) [Compound 178] |  | 10 to 25 nM | 
CCn1c2c(c3ccc(OCCCN4CCCN(c5ccc(C(=O)N[C@H]6CC[C@H](Oc7ccc(C#N)c(Cl)c7)CC6)nn5)CC4)cc31)C(=O)N(C1CCC(=O)NC1=O)C2=O (stereo partly drawn) [Compound 46] | 20% | 10 to 25 nM | 
Cn1c2c(c3ccc(OCCN4CCN(c5ccc(C(=O)N[C@H]6C(C)(C)[C@H](Oc7ccc(C#N)c(Cl)c7)C6(C)C)cc5)CC4)cc31)C(=O)N(C1CCC(=O)NC1=O)C2=O (stereo partly drawn) [Compound 1] |  |  | remaining activity at 0.1 µM [2]: 47%; DC50 [3]: 10 to 25 nM
Cn1c2c(c3ccc(OCCCOC4CC5(CCN(c6ccc(C(=O)N[C@H]7CC[C@H](Oc8ccc(C#N)c(Cl)c8)CC7)nn6)C5)C4)cc31)C(=O)N(C1CCC(=O)NC1=O)C2=O (stereo partly drawn) [Compound 179] |  |  | DC50 [3]: 25 to 100 nM
Cn1c2c(c3ccc(OCCN4CCC(c5ncc(C(=O)N[C@H]6CC[C@H](Oc7ccc(C#N)c(Cl)c7)CC6)cn5)CC4)cc31)C(=O)N(C1CCC(=O)NC1=O)C2=O (stereo partly drawn) [Compound 45] |  |  | DC50 [3]: 25 to 100 nM
CCn1c2c(c3ccc(OCCCN4CCN(c5ccc(C(=O)N[C@H]6C(C)(C)[C@H](Oc7ccc(C#N)c(Cl)c7)C6(C)C)cn5)CC4)cc31)C(=O)N(C1CCC(=O)NC1=O)C2=O (stereo partly drawn) [Compound 20] | 63% |  | 
CCn1c2c(c3ccc(OCCN4CCC(C5CCN(c6ccc(C(=O)N[C@H]7CC[C@H](N(C)c8ccc(C#N)c(Cl)c8)CC7)nn6)CC5)CC4)cc31)C(=O)N(C1CCC(=O)NC1=O)C2=O (stereo partly drawn) [Compound 166] | 47% |  | 
CCn1c2c(c3ccc(OCCCOC4CC5(CCN(c6ccc(C(=O)N[C@H]7CC[C@H](Oc8ccc(C#N)c(Cl)c8)CC7)nn6)C5)C4)cc31)C(=O)N(C1CCC(=O)NC1=O)C2=O (stereo partly drawn) [Compound 176] |  | 25 to 100 nM | 
Cn1c2c(c3cccc(OCCCN4CCN(c5ccc(C(=O)N[C@H]6C(C)(C)[C@H](Oc7ccc(C#N)c(Cl)c7)C6(C)C)cn5)CC4)c31)C(=O)N(C1CCC(=O)NC1=O)C2=O (stereo partly drawn) [Compound 24] |  |  | remaining activity at 0.1 µM [2]: 62%
